Entries after “also recorded” stand apart in the source; their conditions may differ. Peptide text beside a SMILES is read from it.
Experiments:
rat α3β4 nAChR = rat α3β4 nAChR (Rattus norvegicus, UniProt P04757+P12392); assay: cell-based; conditions: for IC50: α3β4 IC50 (half-blocking dose)
rat α6/α3β4 nAChR = rat α6/α3β4 nAChR (Rattus norvegicus, UniProt P04757+P12392+P43143); assay: cell-based
[1] = α6/α3β4 IC50 (half-blocking dose)

rat α6/α3β4 nAChR, sequence (P04757 whole entry, looked up): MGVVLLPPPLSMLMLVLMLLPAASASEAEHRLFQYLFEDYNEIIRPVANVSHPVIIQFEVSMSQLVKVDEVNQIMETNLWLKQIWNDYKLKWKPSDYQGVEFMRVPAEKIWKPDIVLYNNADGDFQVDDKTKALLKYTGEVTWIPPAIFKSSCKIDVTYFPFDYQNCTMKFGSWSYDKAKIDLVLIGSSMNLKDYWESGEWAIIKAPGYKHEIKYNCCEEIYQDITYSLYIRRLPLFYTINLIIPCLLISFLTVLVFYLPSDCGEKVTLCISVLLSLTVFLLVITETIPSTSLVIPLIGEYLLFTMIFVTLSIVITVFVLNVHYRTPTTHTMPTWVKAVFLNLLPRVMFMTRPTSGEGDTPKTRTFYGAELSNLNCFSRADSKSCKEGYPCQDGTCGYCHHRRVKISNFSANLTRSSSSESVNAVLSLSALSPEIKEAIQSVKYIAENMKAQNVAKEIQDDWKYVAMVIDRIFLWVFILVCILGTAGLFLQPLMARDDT
rat α6/α3β4 nAChR, sequence (P12392 whole entry, looked up): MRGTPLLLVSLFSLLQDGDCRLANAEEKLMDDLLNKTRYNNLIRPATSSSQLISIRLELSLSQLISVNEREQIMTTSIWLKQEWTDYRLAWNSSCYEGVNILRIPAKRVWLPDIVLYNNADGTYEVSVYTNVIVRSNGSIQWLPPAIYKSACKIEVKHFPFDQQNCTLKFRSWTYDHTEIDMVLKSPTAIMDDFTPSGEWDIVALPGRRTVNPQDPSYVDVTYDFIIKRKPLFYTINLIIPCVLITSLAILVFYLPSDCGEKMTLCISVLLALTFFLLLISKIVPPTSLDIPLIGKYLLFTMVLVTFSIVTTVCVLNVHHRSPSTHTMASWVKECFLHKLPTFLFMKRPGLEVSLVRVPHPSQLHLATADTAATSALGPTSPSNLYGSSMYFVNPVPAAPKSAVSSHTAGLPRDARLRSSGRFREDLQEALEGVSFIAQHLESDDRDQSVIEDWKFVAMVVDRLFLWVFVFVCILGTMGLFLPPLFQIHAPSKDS
rat α6/α3β4 nAChR, sequence (P43143 whole entry, looked up): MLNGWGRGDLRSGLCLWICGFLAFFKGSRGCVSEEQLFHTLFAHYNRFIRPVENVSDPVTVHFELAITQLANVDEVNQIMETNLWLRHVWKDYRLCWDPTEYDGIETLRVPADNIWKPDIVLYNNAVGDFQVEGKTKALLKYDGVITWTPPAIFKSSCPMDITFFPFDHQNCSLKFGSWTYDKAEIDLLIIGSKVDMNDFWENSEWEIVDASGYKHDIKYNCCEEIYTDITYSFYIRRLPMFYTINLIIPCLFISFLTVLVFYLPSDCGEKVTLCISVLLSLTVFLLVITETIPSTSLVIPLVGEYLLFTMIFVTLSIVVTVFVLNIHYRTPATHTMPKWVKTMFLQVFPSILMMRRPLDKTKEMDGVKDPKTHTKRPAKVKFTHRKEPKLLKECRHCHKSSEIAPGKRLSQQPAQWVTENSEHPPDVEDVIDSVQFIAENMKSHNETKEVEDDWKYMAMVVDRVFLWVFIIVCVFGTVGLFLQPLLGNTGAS
rat α3β4 nAChR, sequence (P04757 26-499 limits assumed): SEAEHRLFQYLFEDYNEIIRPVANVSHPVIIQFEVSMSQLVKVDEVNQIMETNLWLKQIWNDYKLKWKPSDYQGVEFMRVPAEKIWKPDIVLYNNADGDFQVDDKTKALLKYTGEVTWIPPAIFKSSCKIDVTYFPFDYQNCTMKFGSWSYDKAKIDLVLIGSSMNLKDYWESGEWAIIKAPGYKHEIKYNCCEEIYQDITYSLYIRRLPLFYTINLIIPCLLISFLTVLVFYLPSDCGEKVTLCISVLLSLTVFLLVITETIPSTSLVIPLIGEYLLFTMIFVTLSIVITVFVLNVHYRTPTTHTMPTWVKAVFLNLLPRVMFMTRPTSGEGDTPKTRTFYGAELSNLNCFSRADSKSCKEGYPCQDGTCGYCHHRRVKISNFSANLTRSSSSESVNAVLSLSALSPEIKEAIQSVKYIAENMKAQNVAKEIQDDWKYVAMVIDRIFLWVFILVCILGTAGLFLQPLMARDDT
rat α3β4 nAChR, sequence (P12392 21-495 limits assumed): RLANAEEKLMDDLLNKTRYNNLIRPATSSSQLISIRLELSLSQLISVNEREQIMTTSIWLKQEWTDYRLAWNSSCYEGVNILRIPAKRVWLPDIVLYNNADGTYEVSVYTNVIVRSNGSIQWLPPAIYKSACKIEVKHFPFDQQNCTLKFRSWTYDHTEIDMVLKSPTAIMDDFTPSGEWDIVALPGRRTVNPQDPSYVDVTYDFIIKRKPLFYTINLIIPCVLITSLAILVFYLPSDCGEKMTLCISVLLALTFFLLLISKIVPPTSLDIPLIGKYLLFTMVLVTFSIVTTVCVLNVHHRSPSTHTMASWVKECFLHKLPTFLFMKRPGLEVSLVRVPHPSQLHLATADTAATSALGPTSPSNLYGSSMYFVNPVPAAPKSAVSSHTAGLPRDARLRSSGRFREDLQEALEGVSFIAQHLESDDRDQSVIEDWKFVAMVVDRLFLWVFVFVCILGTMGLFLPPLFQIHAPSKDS

CSCC[C@@H]1NC(=O)[C@H](C)NC(=O)[C@H](CO)NC(=O)[C@@H]2CSSC[C@H](NC(=O)CN)C(=O)N[C@@H](CSSC[C@@H](C(N)=O)NC(=O)[C@H](Cc3ccc(O)cc3)NC(=O)[C@@H]3CCCN3C(=O)[C@H](CO)NC1=O)C(=O)N[C@@H](CO)C(=O)N[C@@H](Cc1c[nH]cn1)C(=O)N1CCC[C@H]1C(=O)N[C@@H](C(C)C)C(=O)N2 [TxID[I14Y]] (HELM PEPTIDE1{G.C.C.S.H.P.V.C.S.A.M.S.P.Y.C.[am]}$PEPTIDE1,PEPTIDE1,2:R3-8:R3|PEPTIDE1,PEPTIDE1,3:R3-15:R3$$$V2.0)
α3β4 IC50 ratio (rat α3β4 nAChR): 2.7
IC50 (rat α3β4 nAChR): 10 nM
IC50 ratio of α6/α3β4 vs. α3β4 (Discrimination) (rat α6/α3β4 nAChR): 3.9
α6/α3β4 IC50 ratio (rat α6/α3β4 nAChR): 1.1
IC50 (rat α6/α3β4 nAChR; [1]): 38.7 nM

CSCC[C@@H]1NC(=O)[C@H](C)NC(=O)[C@H](CO)NC(=O)[C@@H]2CSSC[C@H](NC(=O)CN)C(=O)N[C@@H](CSSC[C@@H](C(N)=O)NC(=O)[C@H](CC(C)C)NC(=O)[C@@H]3CCCN3C(=O)[C@H](CO)NC1=O)C(=O)N[C@@H](CO)C(=O)N[C@@H](Cc1c[nH]cn1)C(=O)N1CCC[C@H]1C(=O)N[C@@H](C(C)C)C(=O)N2 [TxID[I14L]] (HELM PEPTIDE1{G.C.C.S.H.P.V.C.S.A.M.S.P.L.C.[am]}$PEPTIDE1,PEPTIDE1,2:R3-8:R3|PEPTIDE1,PEPTIDE1,3:R3-15:R3$$$V2.0)
α3β4 IC50 ratio (rat α3β4 nAChR): 2.8
IC50 (rat α3β4 nAChR): 9.98 nM
IC50 ratio of α6/α3β4 vs. α3β4 (Discrimination) (rat α6/α3β4 nAChR): 2.9
α6/α3β4 IC50 ratio (rat α6/α3β4 nAChR): 0.9
IC50 (rat α6/α3β4 nAChR; [1]): 29 nM

CC[C@H](C)[C@@H]1NC(=O)[C@H](CC(=O)O)NC(=O)[C@@H]2CCCN2C(=O)[C@H](CO)NC(=O)[C@H](CCSC)NC(=O)[C@H](C)NC(=O)[C@H](CO)NC(=O)[C@@H]2CSSC[C@H](NC(=O)CN)C(=O)N[C@@H](CSSC[C@@H](C(N)=O)NC1=O)C(=O)N[C@@H](CO)C(=O)N[C@@H](Cc1c[nH]cn1)C(=O)N1CCC[C@H]1C(=O)N[C@@H](C(C)C)C(=O)N2 [TxID[14D]] (HELM PEPTIDE1{G.C.C.S.H.P.V.C.S.A.M.S.P.D.I.C.[am]}$PEPTIDE1,PEPTIDE1,2:R3-8:R3|PEPTIDE1,PEPTIDE1,3:R3-16:R3$$$V2.0)
α3β4 IC50 ratio (rat α3β4 nAChR): 14.1
IC50 (rat α3β4 nAChR): 50.6 nM
IC50 ratio of α6/α3β4 vs. α3β4 (Discrimination) (rat α6/α3β4 nAChR): 44.7
α6/α3β4 IC50 ratio (rat α6/α3β4 nAChR): 66.6
IC50 (rat α6/α3β4 nAChR; α6/α3β4 IC50): 1000 to 10000 nM
IC50 (rat α6/α3β4 nAChR; [1]): 2260 nM

CC[C@H](C)[C@@H]1NC(=O)[C@@H]2CCCN2C(=O)[C@H](CO)NC(=O)[C@H](CCSC)NC(=O)[C@H](C)NC(=O)[C@H](CCC(=O)O)NC(=O)[C@@H]2CSSC[C@H](NC(=O)CN)C(=O)N[C@@H](CSSC[C@@H](C(N)=O)NC1=O)C(=O)N[C@@H](CO)C(=O)N[C@@H](Cc1c[nH]cn1)C(=O)N1CCC[C@H]1C(=O)N[C@@H](C(C)C)C(=O)N2 [TxID[S9E]] (HELM PEPTIDE1{G.C.C.S.H.P.V.C.E.A.M.S.P.I.C.[am]}$PEPTIDE1,PEPTIDE1,2:R3-8:R3|PEPTIDE1,PEPTIDE1,3:R3-15:R3$$$V2.0)
binding (blocking) activity to α3β4 nAChR compared with wild type TxID (rat α3β4 nAChR): weak
binding (blocking) activity to α6/α3β4 nAChR compared with wild type TxID (rat α6/α3β4 nAChR): completely lost; also recorded: completely loses the binding activity
blocking effect on the current of rat α6/α3β4 nAChRs (rat α6/α3β4 nAChR): no blocking activity; also recorded: no blocking effect

CC[C@H](C)[C@@H]1NC(=O)[C@@H]2CCCN2C(=O)[C@H](Cc2ccc(O)cc2)NC(=O)[C@H](CCSC)NC(=O)[C@H](C)NC(=O)[C@H](CO)NC(=O)[C@@H]2CSSC[C@H](NC(=O)CN)C(=O)N[C@@H](CSSC[C@@H](C(N)=O)NC1=O)C(=O)N[C@@H](CO)C(=O)N[C@@H](Cc1c[nH]cn1)C(=O)N1CCC[C@H]1C(=O)N[C@@H](C(C)C)C(=O)N2 [TxID[S12Y]] (HELM PEPTIDE1{G.C.C.S.H.P.V.C.S.A.M.Y.P.I.C.[am]}$PEPTIDE1,PEPTIDE1,2:R3-8:R3|PEPTIDE1,PEPTIDE1,3:R3-15:R3$$$V2.0)
α3β4 IC50 ratio (rat α3β4 nAChR): 2.5
IC50 (rat α3β4 nAChR): 9.09 nM
IC50 ratio of α6/α3β4 vs. α3β4 (Discrimination) (rat α6/α3β4 nAChR): 3.8
α6/α3β4 IC50 ratio (rat α6/α3β4 nAChR): 1.0
IC50 (rat α6/α3β4 nAChR; [1]): 34.2 nM

CC[C@H](C)[C@@H]1NC(=O)[C@@H]2CCCN2C(=O)[C@H](CO)NC(=O)[C@H](CCSC)NC(=O)[C@H](C)NC(=O)[C@H](CCCNC(=N)N)NC(=O)[C@H](CO)NC(=O)[C@@H]2CSSC[C@H](NC(=O)CN)C(=O)N[C@@H](CSSC[C@@H](C(N)=O)NC1=O)C(=O)N[C@@H](CO)C(=O)N[C@@H](Cc1c[nH]cn1)C(=O)N1CCC[C@H]1C(=O)N[C@@H](C(C)C)C(=O)N2 [TxID[10R]] (HELM PEPTIDE1{G.C.C.S.H.P.V.C.S.R.A.M.S.P.I.C.[am]}$PEPTIDE1,PEPTIDE1,2:R3-8:R3|PEPTIDE1,PEPTIDE1,3:R3-16:R3$$$V2.0)
IC50 (rat α3β4 nAChR): > 10000 nM
IC50 (rat α6/α3β4 nAChR; [1]): > 10000 nM

CC[C@H](C)[C@@H]1NC(=O)[C@H](Cc2c[nH]cn2)NC(=O)[C@@H]2CCCN2C(=O)[C@H](CO)NC(=O)[C@H](CCSC)NC(=O)[C@H](C)NC(=O)[C@H](CO)NC(=O)[C@@H]2CSSC[C@H](NC(=O)CN)C(=O)N[C@@H](CSSC[C@@H](C(N)=O)NC1=O)C(=O)N[C@@H](CO)C(=O)N[C@@H](Cc1c[nH]cn1)C(=O)N1CCC[C@H]1C(=O)N[C@@H](C(C)C)C(=O)N2 [TxID[14H]] (HELM PEPTIDE1{G.C.C.S.H.P.V.C.S.A.M.S.P.H.I.C.[am]}$PEPTIDE1,PEPTIDE1,2:R3-8:R3|PEPTIDE1,PEPTIDE1,3:R3-16:R3$$$V2.0)
α3β4 IC50 ratio (rat α3β4 nAChR): 9.2
IC50 (rat α3β4 nAChR): 33 nM
IC50 ratio of α6/α3β4 vs. α3β4 (Discrimination) (rat α6/α3β4 nAChR): 9.5
α6/α3β4 IC50 ratio (rat α6/α3β4 nAChR): 9.2
IC50 (rat α6/α3β4 nAChR; [1]): 312 nM

CC[C@H](C)[C@@H]1NC(=O)[C@@H]2CCCN2C(=O)[C@H](CO)NC(=O)[C@H](CCSC)NC(=O)[C@H](C)NC(=O)[C@H](CC(=O)O)NC(=O)[C@@H]2CSSC[C@H](NC(=O)CN)C(=O)N[C@@H](CSSC[C@@H](C(N)=O)NC1=O)C(=O)N[C@@H](CO)C(=O)N[C@@H](Cc1c[nH]cn1)C(=O)N1CCC[C@H]1C(=O)N[C@@H](C(C)C)C(=O)N2 [TxID[S9D]] (HELM PEPTIDE1{G.C.C.S.H.P.V.C.D.A.M.S.P.I.C.[am]}$PEPTIDE1,PEPTIDE1,2:R3-8:R3|PEPTIDE1,PEPTIDE1,3:R3-15:R3$$$V2.0)
blocking effect on the current of rat α6/α3β4 nAChRs (rat α6/α3β4 nAChR): no blocking effect

CC[C@H](C)[C@@H]1NC(=O)[C@H](C)NC(=O)[C@H](CO)NC(=O)[C@@H]2CSSC[C@H](NC(=O)CN)C(=O)N[C@@H](CSSC[C@@H](C(N)=O)NC(=O)[C@H]([C@@H](C)CC)NC(=O)[C@@H]3CCCN3C(=O)[C@H](CO)NC1=O)C(=O)N[C@@H](CO)C(=O)N[C@@H](Cc1c[nH]cn1)C(=O)N1CCC[C@H]1C(=O)N[C@@H](C(C)C)C(=O)N2 [TxID[M11I]] (HELM PEPTIDE1{G.C.C.S.H.P.V.C.S.A.I.S.P.I.C.[am]}$PEPTIDE1,PEPTIDE1,2:R3-8:R3|PEPTIDE1,PEPTIDE1,3:R3-15:R3$$$V2.0)
binding (blocking) activity to α6/α3β4 nAChR compared with wild type TxID (rat α6/α3β4 nAChR): not a decrease

CC[C@H](C)[C@@H]1NC(=O)[C@@H]2CCCN2C(=O)[C@H](CO)NC(=O)[C@H](CCSC)NC(=O)[C@H](C)NC(=O)[C@H](CO)NC(=O)[C@@H]2CSSC[C@H](NC(=O)[C@H](C)N)C(=O)N[C@@H](CSSC[C@@H](C(N)=O)NC1=O)C(=O)N[C@@H](CO)C(=O)N[C@@H](Cc1c[nH]cn1)C(=O)N1CCC[C@H]1C(=O)N[C@@H](C(C)C)C(=O)N2 [TxID[G1A]] (HELM PEPTIDE1{A.C.C.S.H.P.V.C.S.A.M.S.P.I.C.[am]}$PEPTIDE1,PEPTIDE1,2:R3-8:R3|PEPTIDE1,PEPTIDE1,3:R3-15:R3$$$V2.0)
IC50 (rat α6/α3β4 nAChR; [1]): 100 to 1000 nM

— patent US20190330275A1 (priority 2016, published 2019)
